Series [1] relates to male dd-strain rats. Put plainly: Acute toxicity test (minimum lethal dose). It is filed as in vivo. The settings on record: mortality for 7 days. As to the method: Groups of male dd-strain rats (each group consisting of five rats) weighing 20±1 g were used. The compounds of the present invention were administered orally (po: 0.3 mg/g) or intraperitoneally (ip: 0.1 mg/g). The MLD (minimum lethal dose) was calculated from the mortality for 7 days after the administration to obtain the results given in Table 1.

In series [2] the test system is isolated ileum of guinea-pig. The experiment in a line: Test for anticholinergic effects on the isolated ileum of guinea-pig (acetylcholine contraction, in vitro). The settings on record: Cavia porcellus, 0.05 h; depressing ratio of 80% or more of acetylcholine contraction; compound 3 minutes before; read-out: Anticholinergic activity: MED (minimum effective dose). The arrangement: species or system guinea-pig (male Hartly-strain). As to the method: (§1) Male Hartly-strain guinea-pigs weighing about 250 g are killed and the abdomen is opened. The part (2-3 cm in length) of the ileum 10 cm away from the caecum to the pylorus is cut off as a preparation. The preparation is suspended with serre-fine in a Magnus bath containing 10 ml of Tyrode's solution at 32±1° C. under an air bubble. The contraction of the ileum is recorded on Kymograph through hebel when 0.1 ml of acetylcholine at a concentration of 10^-3 g/ml is added to the Tyrode's solution.
(§2) On the other hand, 3 minutes after administration of the test compounds, the same procedure as mentioned above is carried out to record the contraction.

The subject of series [3] is isolated ileum of guinea-pig. Put plainly: Test for antihistaminergic effects on the isolated ileum of guinea-pig (histamine contraction, in vitro). The settings on record: Cavia porcellus, 0.05 h; depressing ratio of 80% or more of histamine contraction; read-out: Antihistaminergic activity: MED. The arrangement: species or system guinea-pig (male Hartly-strain). The procedure:
as §1, §2
In this test, 0.1 ml of histamine at a concentration of 5×10^-3 g/l is used.

For series [4], the system named is blood platelets (platelet-rich plasma). Put plainly: Test for the inhibition of platelet aggregation (collagen-induced, platelet-rich plasma). The class given is cell-based, male white rabbits. The note with it: Oryctolagus cuniculus, Platelet, 0.05 h; depressing ratio of 50% of collagen-induced aggregation; compound 3 minutes before; read-out: Antiplatelet aggregation activity: MED. As to the method:
In this test, 9 vols. of blood are sampled from the caroted artery of male white rabbits weighing 2 to 2.5 kg and placed in a silicon-coated flask containing 1 vol. of 3.8% sodium citrate. The thus obtained blood is centrifuged at 1,000 rpm for 15 minutes to obtain platelet-rich plasma. The aggregation of the blood platelets is observed using an aggregometer, when collagen is added to the platelet-rich plasma to the extent of the final concentration that 50% of platelet aggregation is caused in the presence of 100 γ/ml of aspirin. On the other hand, 3 minutes after administration of the test compounds to the platelet-rich plasma, the same procedure as mentioned above is carried out to observe the aggregation of blood platelet. The test compounds showing a depressing ratio of 50%, compared with the inhibition of aggregation by collagen alone, are concluded to have antiplatelet aggregation activity.

Where only a bound is given, the exact number is not on record here.

With `CCN(CC)CCCNC1c2ccccc2COc2ccc(C)cc21` (centres unmarked) [Compound 4, 2-methyl-11-{3-(diethylamino)propyl}amino-6,11-dihydrodibenz[b,e]oxepin], the “Acute toxicity: MLD (minimum lethal dose)” value (“Acute toxicity: MLD” for short) in series [1] (ip) was determined as 100 mg/kg; in series [1] (po) it was 300 mg/kg. For the same compound, the minimal effective concentration in series [2] was 10 µg/mL; in series [3] it was 10 µg/mL; in series [4], 20 µg/mL.
In the case of `CCN(CC)CCCNC1c2ccccc2COc2ccc(Cl)cc21` (centres unmarked) [Compound 5, 2-chloro-11-{3-(diethylamino)propyl}amino-6,11-dihydrodibenz[b,e]oxepin], the entries for the “Acute toxicity: MLD” value in series [1] (ip) and in series [1] (po) were above 100 mg/kg and 300 mg/kg, respectively. The minimal effective concentration came to 1 µg/mL in series [2], 1 µg/mL in series [3] and 20 µg/mL in series [4].
Turning to `CCN(CC)CCCNC1c2ccccc2COc2c(C)cccc21` (centres unmarked) [Compound 6, 4-methyl-11-{3-(diethylamino)propyl}amino-6,11-dihydrodibenz[b,e]oxepin], the “Acute toxicity: MLD” value in series [1] (ip) stood at 100 mg/kg; in series [1] (po), 300 mg/kg. Moreover, the minimal effective concentration in series [2] was found to be 3 µg/mL; in series [3], 10 µg/mL; in series [4] it was 20 µg/mL.
In the case of `CCc1ccc2c(c1)C(NCCCN(C)C)c1ccccc1CO2` (centres unmarked) [Compound 15, 2-ethyl-11-{3-(dimethylamino)propyl}amino-6,11-dihydrodibenz[b,e]oxepin], the results for the “Acute toxicity: MLD” value in series [1] (ip) and in series [1] (po) were above 100 mg/kg and above 300 mg/kg, respectively. For the same compound, the results for the minimal effective concentration in series [2], in series [3] and in series [4] were 3 µg/mL, 3 µg/mL and 20 µg/mL, respectively.
In the case of `Cc1ccc2c(c1)C(NCCN1CCNCC1)c1ccccc1CO2` (centres unmarked) [Compound 25, 2-methyl-11-{2-(1-piperazinyl)ethyl}amino-6,11-dihydrodibenz[b,e]oxepin], the figures for the “Acute toxicity: MLD” value in series [1] (ip) and in series [1] (po) were above 100 mg/kg and above 300 mg/kg, respectively. In addition, the minimal effective concentration came out at 10 µg/mL in series [2], 10 µg/mL in series [3] and 20 µg/mL in series [4].
In the case of `CCc1ccc2c(c1)C(NCCN1CCNCC1)c1ccccc1CO2` (centres unmarked) [Compound 26, 2-ethyl-11-{2-(1-piperazinyl)ethyl}amino-6,11-dihydrodibenz[b,e]oxepin], the “Acute toxicity: MLD” value in series [1] (ip) is on record as above 100 mg/kg; in series [1] (po), above 300 mg/kg. For the same compound, the minimal effective concentration worked out at 3 µg/mL in series [2], 3 µg/mL in series [3] and 5 µg/mL in series [4].
Consider `CCN1CCCC(NC2c3ccccc3COc3ccc(C)cc32)C1` (centres unmarked) [Compound 27, 2-methyl-11-(1-ethyl-3-piperidyl)amino-6,11-dihydrodibenz[b,e]oxepin], for which the “Acute toxicity: MLD” value is recorded as above 100 mg/kg in series [1] (ip) and 300 mg/kg in series [1] (po). Further, the minimal effective concentration in series [2] turned out to be 1 µg/mL; in series [3], 10 µg/mL; in series [4] it was 100 µg/mL.
Take `Cc1ccc2c(c1)C(NCCc1ccccn1)c1ccccc1CO2` (centres unmarked) [Compound 36, 2-methyl-11-{2-(2-pyridyl)ethyl}amino-6,11-dihydrodibenz[b,e]oxepin]: the “Acute toxicity: MLD” value in series [1] (ip) is on record as 100 mg/kg; in series [1] (po), 200 mg/kg. For the same compound, the minimal effective concentration in series [2] is 10 µg/mL; in series [3], 3 µg/mL; in series [4], 100 µg/mL.
On to `Cc1ccc2c(c1)C(N1CCN(CCO)CC1)c1ccccc1CO2` (centres unmarked) [Compound 37, 2-methyl-11-{4-(2-hydroxyethyl)-1-piperazinyl}-6,11-dihydrodibenz[b,e]oxepin], for which the “Acute toxicity: MLD” value was above 100 mg/kg in series [1] (ip) and above 300 mg/kg in series [1] (po). Besides, the minimal effective concentration stood at 10 µg/mL in series [2], 10 µg/mL in series [3] and 50 µg/mL in series [4].
In the case of `CCc1ccc2c(c1)C(N1CCN(CCN)CC1)c1ccccc1CO2` (centres unmarked) [Compound 45, 2-ethyl-11-{4-(2-aminoethyl)-1-piperazinyl}-6,11-dihydrodibenz[b,e]oxepin], the “Acute toxicity: MLD” value in series [1] (ip) is listed as 100 mg/kg; in series [1] (po), above 300 mg/kg. Also, the figures for the minimal effective concentration in series [2], in series [3] and in series [4] were 10 µg/mL, 10 µg/mL and 100 µg/mL, respectively.
For `CN1CCN(C2c3ccccc3COc3c(-c4ccccc4)cccc32)CC1` (centres unmarked) [Compound 47, 4-phenyl-11-(4-methyl-1-piperazinyl)-6,11-dihydrodibenz[b,e]oxepin], the “Acute toxicity: MLD” value in series [1] (ip) came to 100 mg/kg; in series [1] (po), 200 mg/kg. In addition, the values for the minimal effective concentration in series [2], in series [3] and in series [4] were 3 µg/mL, 10 µg/mL and 10 µg/mL, respectively.
As to `CCN(CC)CCNC1c2ccccc2COc2ccc(C3CCCCC3)cc21` (centres unmarked) [Compound 48, 2-cyclohexyl-11-{2-(diethylamino)ethyl}amino-6,11-dihydrodibenz[b,e]oxepin], the “Acute toxicity: MLD” value in series [1] (ip) was 100 mg/kg; in series [1] (po), above 300 mg/kg. In addition, the minimal effective concentration stood at 3 µg/mL in series [2], 3 µg/mL in series [3] and 100 µg/mL in series [4].
As to `CN(C)CCCNC1c2ccccc2COc2ccc(F)cc21` (centres unmarked) [Compound 49, 2-fluoro-11-{3-(dimethylamino)propyl}amino-6,11-dihydrodibenz[b,e]oxepin], the “Acute toxicity: MLD” value is above 100 mg/kg in series [1] (ip) and above 300 mg/kg in series [1] (po). For the same compound, the minimal effective concentration amounted to 3 µg/mL in series [2], 1 µg/mL in series [3] and 50 µg/mL in series [4].
For `CN(C)CCCNC1c2ccccc2COc2ccc(Cl)cc21` (centres unmarked) [Compound 50, 2-chloro-11-{3-(dimethylamino)propyl}amino-6,11-dihydrodibenz[b,e]oxepin] the same measures were above 100 mg/kg, 200 mg/kg, 10 µg/mL, 3 µg/mL and 50 µg/mL.
On the same counts, the results for `c1ccc(-c2ccc3c(c2)C(NC2CN4CCC2CC4)c2ccccc2CO3)cc1` (centres unmarked) [Compound 55, 2-phenyl-11-(3-quinuclidinyl)amino-6,11-dihydrodibenz[b,e]oxepin] are above 100 mg/kg, above 300 mg/kg, 3 µg/mL, 1 µg/mL and 20 µg/mL.
Consider `c1ccc(-c2cccc3c2OCc2ccccc2C3NC2CN3CCC2CC3)cc1` (centres unmarked) [Compound 57, 4-phenyl-11-(3-quinuclidinyl)amino-6,11-dihydrodibenz[b,e]oxepin], for which the “Acute toxicity: MLD” value in series [1] (ip) was 100 mg/kg; in series [1] (po), above 300 mg/kg. Moreover, the minimal effective concentration in series [2] stood at 3 µg/mL; in series [3], 3 µg/mL; in series [4] it was 10 µg/mL.

(Values after patent publication US4396550A, “Dibenz [b,e] oxepin derivatives” (Kyowa Hakko Kogyo Co., Ltd., priority 1980, dated 1983).)
